In paper PMC4901312, “Ecological factors drive natural selection pressure of avian aryl hydrocarbon receptor 1 genotypes” (Scientific Reports, 2016):

Experiments:
Assay in all cases: luciferase reporter gene transactivation assay (ckCYP1A5 promoter) in transfected COS-7 cells; LOEC
Assay type in all cases: cell-based
chicken AHR1 (ckAHR1) = biological target: T1, chicken AHR1 (ckAHR1) (Gallus gallus, UniProt Q9I9E2)
T1 construct: full-length cDNA in pcDNA3.1 zeo (+), expressed in COS-7 cells; with chicken ARNT1 (ckARNT1)
T1 sequence (Q9I9E2 1-858): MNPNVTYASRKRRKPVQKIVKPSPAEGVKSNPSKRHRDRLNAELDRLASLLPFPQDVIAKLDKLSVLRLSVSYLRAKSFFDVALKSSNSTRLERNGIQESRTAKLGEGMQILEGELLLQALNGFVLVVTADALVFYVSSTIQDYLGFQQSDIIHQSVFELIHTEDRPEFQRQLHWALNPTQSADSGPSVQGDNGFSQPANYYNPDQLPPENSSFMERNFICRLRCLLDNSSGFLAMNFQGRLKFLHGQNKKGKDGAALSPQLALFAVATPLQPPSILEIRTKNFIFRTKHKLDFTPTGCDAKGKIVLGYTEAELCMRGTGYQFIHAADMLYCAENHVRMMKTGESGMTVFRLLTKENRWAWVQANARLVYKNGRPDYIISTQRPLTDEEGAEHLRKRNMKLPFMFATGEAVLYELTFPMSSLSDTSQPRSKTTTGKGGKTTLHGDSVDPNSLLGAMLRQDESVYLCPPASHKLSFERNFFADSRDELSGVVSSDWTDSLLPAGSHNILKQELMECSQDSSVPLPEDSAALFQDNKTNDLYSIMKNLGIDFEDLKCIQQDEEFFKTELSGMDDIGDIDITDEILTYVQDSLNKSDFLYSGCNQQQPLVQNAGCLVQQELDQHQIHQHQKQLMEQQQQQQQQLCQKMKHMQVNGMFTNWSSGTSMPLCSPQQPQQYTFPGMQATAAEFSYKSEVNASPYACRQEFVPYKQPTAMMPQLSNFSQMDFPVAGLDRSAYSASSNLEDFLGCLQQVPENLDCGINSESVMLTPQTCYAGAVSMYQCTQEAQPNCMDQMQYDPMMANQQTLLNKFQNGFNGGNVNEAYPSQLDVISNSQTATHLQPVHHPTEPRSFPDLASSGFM

[1] = biological target: T2, black-footed albatross AHR1 (bfaAHR1) (Phoebastria nigripes, UniProt Q76EQ7)
T2 construct: full-length cDNA in pcDNA3.1 zeo (+), expressed in COS-7 cells; with chicken ARNT1 (ckARNT1)
T2 sequence (Q76EQ7 1-861): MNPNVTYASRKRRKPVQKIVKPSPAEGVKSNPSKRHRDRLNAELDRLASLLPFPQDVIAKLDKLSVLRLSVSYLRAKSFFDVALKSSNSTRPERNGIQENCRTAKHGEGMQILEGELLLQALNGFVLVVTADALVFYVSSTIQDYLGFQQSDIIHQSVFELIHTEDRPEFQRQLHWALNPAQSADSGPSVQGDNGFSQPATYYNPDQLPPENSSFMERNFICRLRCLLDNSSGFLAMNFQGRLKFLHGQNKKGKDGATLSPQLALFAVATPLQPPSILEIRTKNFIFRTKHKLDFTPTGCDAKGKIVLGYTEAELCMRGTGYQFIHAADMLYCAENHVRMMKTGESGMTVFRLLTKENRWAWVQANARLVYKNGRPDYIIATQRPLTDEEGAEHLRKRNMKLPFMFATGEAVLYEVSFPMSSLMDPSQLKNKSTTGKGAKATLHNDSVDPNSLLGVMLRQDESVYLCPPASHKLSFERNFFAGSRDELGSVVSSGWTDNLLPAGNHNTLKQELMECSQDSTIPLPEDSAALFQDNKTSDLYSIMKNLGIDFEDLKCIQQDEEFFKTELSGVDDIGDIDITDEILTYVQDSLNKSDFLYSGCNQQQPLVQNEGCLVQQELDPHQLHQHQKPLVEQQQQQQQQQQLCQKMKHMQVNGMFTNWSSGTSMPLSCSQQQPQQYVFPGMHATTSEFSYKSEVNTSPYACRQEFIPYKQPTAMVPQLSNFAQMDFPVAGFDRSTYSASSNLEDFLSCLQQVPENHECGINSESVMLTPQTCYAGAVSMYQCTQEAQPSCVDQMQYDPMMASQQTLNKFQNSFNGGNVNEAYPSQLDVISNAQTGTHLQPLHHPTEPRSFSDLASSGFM

[2] = biological target: T3, common cormorant AHR1 (ccAHR1) (Phalacrocorax carbo, UniProt Q76CM2)
T3 construct: gene AHR 1; full-length cDNA in pcDNA3.1 zeo (+), expressed in COS-7 cells; with chicken ARNT1 (ckARNT1)
T3 sequence (Q76CM2 1-860): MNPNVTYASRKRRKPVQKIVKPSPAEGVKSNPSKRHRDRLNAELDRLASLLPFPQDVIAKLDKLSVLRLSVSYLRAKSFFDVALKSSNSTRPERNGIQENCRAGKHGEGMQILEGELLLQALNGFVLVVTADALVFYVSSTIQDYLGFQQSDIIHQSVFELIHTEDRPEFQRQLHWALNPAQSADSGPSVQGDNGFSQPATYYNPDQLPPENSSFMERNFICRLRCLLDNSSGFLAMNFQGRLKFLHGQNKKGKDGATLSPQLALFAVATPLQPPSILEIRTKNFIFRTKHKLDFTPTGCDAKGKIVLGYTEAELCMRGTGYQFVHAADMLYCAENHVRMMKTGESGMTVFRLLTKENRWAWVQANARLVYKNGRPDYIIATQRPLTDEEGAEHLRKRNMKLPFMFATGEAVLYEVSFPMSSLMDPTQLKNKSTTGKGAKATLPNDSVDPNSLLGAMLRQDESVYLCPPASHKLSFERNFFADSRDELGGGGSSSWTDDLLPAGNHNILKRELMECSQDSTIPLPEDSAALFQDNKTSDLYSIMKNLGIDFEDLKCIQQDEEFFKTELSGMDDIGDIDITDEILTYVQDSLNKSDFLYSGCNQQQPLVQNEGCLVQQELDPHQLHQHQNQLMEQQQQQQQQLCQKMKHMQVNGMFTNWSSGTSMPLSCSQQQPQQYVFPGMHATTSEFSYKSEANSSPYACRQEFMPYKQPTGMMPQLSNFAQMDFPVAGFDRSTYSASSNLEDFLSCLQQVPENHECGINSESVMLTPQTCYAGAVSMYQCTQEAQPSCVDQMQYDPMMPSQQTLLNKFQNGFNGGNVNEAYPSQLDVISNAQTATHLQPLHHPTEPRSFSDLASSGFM

With `Brc1ccc2c(c1)Oc1cc(Br)cc(Br)c1O2` [1,3,7-TriBDD, 1,3,7-tribromodibenzo-p-dioxin] the “luciferase reporter gene transactivation assay (ckCYP1A5 promoter) in transfecte” value (chicken AHR1 (ckAHR1)) was 1.2 nM, the “luciferase reporter gene transactivation assay (ckCYP1A5 promoter) in transfecte” value [1] was 12 nM and the “luciferase reporter gene transactivation assay (ckCYP1A5 promoter) in transfecte” value [2] was 120 nM.
